Consider two compounds from patent US20110313677A1, “METHOD FOR DETERMINING THE LIVER PERFORMANCE OF A LIVING ORGANISM BY THE MEANS OF QUANTITATIVE MEASURING THE METABOLIZATION OF SUBSTRATES” (HUMEDICS GMBH, priority 2009, published 2011).

The structures appear in SMILES notation.

A short description of series [1]: concentration changes of 13C methacetin and its dealkylation product Paracetamol in the blood followed by HPLC. The note with it: FIG. 8, blood.
Excerpt: (§1) Beside or additionally to the determination of the amount of a ^13C labelled metabolization product as for instance ^13CO2 in the exhalation air for estimating the liver performance it is also conceivable to follow the concentration decrease of the dealkylated product in the blood and to deduce from the corresponding slope kinetics a time constant tau.
(§2) The concentration changes of the administered ^13C labelled substrate, for instance ^13C methacetin and of the dealkylation product formed in the liver, for instance Paracetamol, are followed by the means of a suitable analytical method, for instance HPLC. […] The initial concentration changes can also be described here with a differential equation of first order.
The next series deals with T1, CYP1A2 (Homo sapiens, UniProt P05177).
T1 construct: follow directly and immediately the metabolization of the administered substrate by the enzymes present in the liver; from tissue; host or cells: liver of the living human subject (in vivo)
T1 sequence (P05177 1-516): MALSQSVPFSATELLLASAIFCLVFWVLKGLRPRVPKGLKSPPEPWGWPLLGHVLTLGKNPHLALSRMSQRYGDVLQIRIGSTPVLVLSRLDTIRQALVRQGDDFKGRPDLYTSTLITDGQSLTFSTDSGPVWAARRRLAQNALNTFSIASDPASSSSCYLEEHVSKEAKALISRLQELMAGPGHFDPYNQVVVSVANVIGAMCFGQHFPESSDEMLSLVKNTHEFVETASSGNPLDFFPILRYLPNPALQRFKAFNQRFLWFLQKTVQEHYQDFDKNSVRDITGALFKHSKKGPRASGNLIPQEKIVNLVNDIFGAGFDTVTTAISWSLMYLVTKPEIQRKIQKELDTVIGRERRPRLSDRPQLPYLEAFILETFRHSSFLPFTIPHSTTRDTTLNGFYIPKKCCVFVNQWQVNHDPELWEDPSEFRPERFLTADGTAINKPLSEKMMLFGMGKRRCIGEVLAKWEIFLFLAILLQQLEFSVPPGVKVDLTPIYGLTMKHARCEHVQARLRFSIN
As to the kind of experiment: breath test: 13CO2 increase in exhalation air after intravenous 13C methacetin (DOB slope kinetics, LiMAx). The series is classed as in vivo. An excerpt: Thereby, the method according to an aspect of the invention comprises the steps of administering at least one ^13C labelled substrate, which is converted by the liver by releasing at least one ^13C labelled metabolization product, in particular ^13CO2 and the step of determining the amount of the at least one formed ^13C labelled metabolization product, in particular of the ^13CO2 amount, in the exhalation air over a definite time interval by the means of at least one measuring device with at least one evaluation unit. In an embodiment, the amount of the formed ^13C labelled metabolization product, in particular of ^13CO2 in the exhalation air, is proportional to the amount of the at least one administered substrate. The method according to an aspect of the invention is characterized in that it is now possible based on the determined measure points to describe the measured initial increase of the amount of the at least one ^13C labelled metabolization product, in particular of the ^13CO2 amount, in the exhalation air by the means of a differential equation of first order. Based on the solution of this differential equation of first order subsequently a maximum value Amax (also designated as DOBmax, whereby DOB stands for “delta over baseline”) and a time constant tau of the increase of the amount of the ^13C labelled metabolization product, in particular of the ^13CO2 amount, are determined.
wherein (t) stands for the metabolization dynamic of the at least one substrate, t for the measuring time, t0 for the start of the metabolization, tau for the time constant of the conversion and Amax for the maximum amplitude of the fitted function or the maximum concentration of the metabolization product and A0 for the initial concentration of the metabolization product. Therefore, a determination of Amax and the time constant tau is possible based on the above equation.
wherein RPDB corresponds to the value 0,011237 (Pee-Dee-Belemnite-standard of the ^13CO2/^12CO2-ratio), P to the CO2 production rate, M to the molar mass of the administered substance and BW to the body weight of the person.
In an embodiment of the present method the determination of the liver performance of a human occurs according to a scheme as shown in FIG. 2. During this measurement course the metabolization is started by the intravenous administering of the substrate to be metabolized, in particular ^13C methacetin 1 in combination with an isotonic sodium chloride solution 1a.
Beside an enzymatic activation of the substrate in particular by the P450 oxygenases also a release or activation of the substrate by the means of radiation or other fast processes is conceivable. The released metabolization product for instance ^13CO2 is transported via the blood into the lung and is there exhaled. The exhalation air is continuously transported into the measuring device 2, e.g., via a breathing mask and a connecting tube and is analyzed by the means of a computer 3 (Stockmann et al., Annals of Surgery, 2009, 250: col. 119-125). A measuring device suitable for the present method is for instance described in WO 2007/107366 A1.
Due to the specific measuring device being applied it is possible to follow the metabolization of the substrate in each breath in real time. This is emphasized in FIG. 3. […] Thereby 1 DOB indicates a change of the ^13CO2 to ^12CO2 ratio at about thousandth part over the natural ratio. As described before, Amax or DOBmax as well as the time constant tau are deducible from said slope. After the ^13CO2 increase has reached a maximum a decrease of the ^13CO2 concentration occurs what can be attributed to further dynamic processes in the body which contribute to the degradation of the measured signal.
described metabolization dynamics it is possible to follow directly and immediately the metabolization of the administered substrate by the enzymes present in the liver. If methacetin is administered as substrate, it is demethylated by the enzyme CYP1A2. […]

The conditions of series [2]: in vivo.
Excerpt: as §1, §2

Regarding `CC(=O)Nc1ccc(O)cc1` [Paracetamol], the “time constant τ1 for the initial fast concentration increase” value in series [1] (Paracetamol formed from 13C methacetin) worked out at 1.3 min. In series [1] (further distribution in the blood), the “time constant τ2 for the subsequent decelerated concentration increase” value is 16 min.
For `CC(=O)Nc1ccc(O[13CH3])cc1` [^13C methacetin, ^13C-methacetin], the “measured maximum value A of the 13CO2 increase in the breathing air” value on CYP1A2 (FIG. 7, curve A, determined data points) is on record as 22,01 DOB. Also, the “time constant tau for the conversion” value at CYP1A2 (FIG. 7, curve B, fit of the initial 13CO2 increase) is 2.42 min. Further, the “amplitude Amax of the fitted function” value at CYP1A2 (FIG. 7, curve B, fit with solution of a differential equation of first order) is recorded as 22,09 DOB. For the same compound, on CYP1A2 (after the operation, residual liver volume 625 ml), the maximum conversion is 169 µg/h/kg. Further, the “maximum conversion LiMAx” value on CYP1A2 (before the liver operation, total liver volume 1450 ml) was found to be 307 µg/h/kg; on CYP1A2 (cirrhosis of the liver (FIG. 4b)), 307 µg/h/kg; at CYP1A2 (corresponding to the aspired residual liver volume of 698 ml (rule of three)), 165 µg/h/kg; at CYP1A2 (heavy liver damages (FIG. 4c)), 144 µg/h/kg; at CYP1A2 (liver failure (FIG. 4d)) it was 55 µg/h/kg; at CYP1A2 (normal liver performance (FIG. 4a)), 504 µg/h/kg. The “initial concentration in the blood” value in series [2] turned out to be 20 µg/mL.
